This is an account of results in patent US8771665B2 (Cocrystal Discovery, Inc., priority 2010, dated 2014).

The target in the assay is T1, HCV1b NS5B polymerase delta 21 (Hepatitis C virus genotype 1b, UniProt P26663).
T1 construct: purified HCV1b NS5B polymerase delta 21
The experiment in a line: RNA-Dependent RNA HCV NS5B (Polymerase) Assay and IC50 Determination. It counts as biochemical. In outline: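 Purified NS5B Δ21 (0.6 μg) with polyA:U16 template, 10 μM UTP plus α-32P UTP in Tris-HCl pH 7.5, 5 mM MgCl2, 0.5% Triton X-100, 60 min at 23°C with varied compound concentrations. Radiolabelled RNA captured on filters, quantified by phosphorimaging; IC50 from triplicate assays.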

T1 sequence (P26663 2420-2989): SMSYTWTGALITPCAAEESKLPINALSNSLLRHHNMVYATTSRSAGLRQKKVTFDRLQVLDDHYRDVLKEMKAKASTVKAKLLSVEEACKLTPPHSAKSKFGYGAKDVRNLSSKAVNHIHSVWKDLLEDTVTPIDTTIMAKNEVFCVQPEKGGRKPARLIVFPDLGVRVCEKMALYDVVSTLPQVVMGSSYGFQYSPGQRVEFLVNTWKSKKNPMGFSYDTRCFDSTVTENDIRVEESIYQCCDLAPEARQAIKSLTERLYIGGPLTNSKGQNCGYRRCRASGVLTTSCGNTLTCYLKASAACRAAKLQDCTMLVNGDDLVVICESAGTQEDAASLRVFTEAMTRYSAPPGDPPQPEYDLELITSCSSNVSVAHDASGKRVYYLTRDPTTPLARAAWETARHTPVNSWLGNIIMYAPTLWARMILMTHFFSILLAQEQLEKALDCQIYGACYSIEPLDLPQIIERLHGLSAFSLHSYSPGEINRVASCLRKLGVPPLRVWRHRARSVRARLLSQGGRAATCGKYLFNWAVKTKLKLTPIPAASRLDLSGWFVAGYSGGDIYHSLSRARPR

`COCCN1CCC(C2CCC(C)CC2)=C(c2cc(C#CC(C)(C)C)sc2C(=O)O)C1` (stereo not drawn) [Example 137, 5-(3,3-Dimethyl-but-1-ynyl)-3-[1-(2-methoxy-ethyl)-4-(4-methyl-cyclohexyl)-1,2,5,6-tetrahydro-pyridin-3-yl]-thiophene-2-carboxylic acid]: the IC50 was above 10 µM.

`CC1CCC(C2=C(c3cc(-c4ccccc4)sc3C(=O)O)CCN(C(=O)Cc3nc4ccccn4n3)C2)CC1` (stereo not drawn) [Example 153, 3-[5-(4-Methyl-cyclohexyl)-1-(2-[1,2,4]triazolo[1,5-a]pyridin-2-yl-acetyl)-1,2,3,6-tetrahydro-pyridin-4-yl]-5-phenyl-thiophene-2-carboxylic acid] showed an IC50 of 3 to 10 µM.

Take `CC1CCC(C2=C(c3cc(-c4ccccc4)sc3C(=O)O)CCN(Cc3cn(C)c4ccccc34)C2)CC1` (stereo not drawn) [Example 095, 3-[5-(4-Methyl-cyclohexyl)-1-(1-methyl-1H-indol-3-ylmethyl)-1,2,3,6-tetrahydro-pyridin-4-yl]-5-phenyl-thiophene-2-carboxylic acid]: the IC50 was in the range of 3 to 10 µM.

`CCN1CCC(c2cc(-c3cccc(NC(=O)c4cscn4)c3)sc2C(=O)O)=C(C2CCC(C)CC2)C1` (stereo not drawn) [Example 025, 3-[1-Ethyl-5-(4-methyl-cyclohexyl)-1,2,3,6-tetrahydro-pyridin-4-yl]-5-{3-[(thiazole-4-carbonyl)-amino]-phenyl}-thiophene-2-carboxylic acid] yielded an IC50 above 10 µM.

As for `CC1CCC(C2=C(c3cc(C#Cc4ccccc4)sc3C(=O)O)CCN(C)C2)CC1` (stereo not drawn) [Example 010, 3-[1-Methyl-5-(4-methyl-cyclohexyl)-1,2,3,6-tetrahydro-pyridin-4-yl]-5-phenylethynyl-thiophene-2-carboxylic acid], the IC50 is above 10 µM.

Compound `CCN1CCC(c2cc(-c3ccc(C(=O)O)cc3)sc2C(=O)O)=C(C2CCC(C)CC2)C1` (stereo not drawn) [Example 035, 5-(4-Carboxy-phenyl)-3-[1-ethyl-5-(4-methyl-cyclohexyl)-1,2,3,6-tetrahydro-pyridin-4-yl]-thiophene-2-carboxylic acid] gave an IC50 below 3 µM.

On to `CC1CCC(C2=C(c3cc(-c4ccc(N)cc4)sc3C(=O)O)CCN(C)C2)CC1` (stereo not drawn) [Example 004, 5-(4-Amino-phenyl)-3-[1-methyl-5-(4-methyl-cyclohexyl)-1,2,3,6-tetrahydro-pyridin-4-yl]-thiophene-2-carboxylic acid], for which the IC50 is below 3 µM.

In the case of `Cc1cc(C)n2nc(CN3CCC(c4cc(-c5ccccc5)sc4C(=O)O)=C(C4CCC(C)CC4)C3)nc2n1` (stereo not drawn) [Example 088, 3-[1-(5,7-Dimethyl-[1,2,4]triazolo[1,5-a]pyrimidin-2-ylmethyl)-5-(4-methyl-cyclohexyl)-1,2,3,6-tetrahydro-pyridin-4-yl]-5-phenyl-thiophene-2-carboxylic acid], the IC50 was below 3 µM.

In turn, `CC1CCC(C2=C(c3cc(-c4ccccc4)sc3C(=O)O)CCN(C(=O)c3cn(C)c4ccccc34)C2)CC1` (stereo not drawn) [Example 098, 3-[5-(4-Methyl-cyclohexyl)-1-(1-methyl-1H-indole-3-carbonyl)-1,2,3,6-tetrahydro-pyridin-4-yl]-5-phenyl-thiophene-2-carboxylic acid] registered an IC50 above 10 µM.

For the compound `CC1CCC(C2=C(c3cc(C#CC(C)(C)C)sc3C(=O)O)CCN(CCO)C2)CC1` (stereo not drawn) [Example 168, 5-(3,3-Dimethyl-but-1-ynyl)-3-[1-(2-hydroxy-ethyl)-5-(4-methyl-cyclohexyl)-1,2,3,6-tetrahydro-pyridin-4-yl]-thiophene-2-carboxylic acid], the IC50 is below 3 µM.

Take `CCN1CCC(c2cc(-c3ccc(NC(=O)c4cccs4)cc3)sc2C(=O)O)=C(C2CCC(C)CC2)C1` (stereo not drawn) [Example 028, 3-[1-Ethyl-5-(4-methyl-cyclohexyl)-1,2,3,6-tetrahydro-pyridin-4-yl]-5-{4-[(thiophene-2-carbonyl)-amino]-phenyl}-thiophene-2-carboxylic acid]: the IC50 was below 3 µM.

Regarding `Cc1oc(=O)oc1COC(=O)c1sc(-c2ccc(NC(=O)c3cscn3)cc2)cc1C1=C(C2CCC(C)CC2)CN(C)CC1` (stereo not drawn) [Example 108, 3-[1-Methyl-5-(4-methyl-cyclohexyl)-1,2,3,6-tetrahydro-pyridin-4-yl]-5-{4-[(thiazole-4-carbonyl)-amino]-phenyl}-thiophene-2-carboxylic acid 5-methyl-2-oxo-[1,3]-dioxol-4-ylmethyl ester], the IC50 is below 3 µM.

The compound `CCN1CCC(c2cc(-c3ccc(NCc4cscn4)cc3)sc2C(=O)O)=C(C2CCC(C)CC2)C1` (stereo not drawn) [Example 061, 3-[1-Ethyl-5-(4-methyl-cyclohexyl)-1,2,3,6-tetrahydro-pyridin-4-yl]-5-{4-[(thiazol-4-ylmethyl)-amino]-phenyl}-thiophene-2-carboxylic acid] yielded an IC50 above 10 µM.

The compound `CCN1CCC(c2cc(-c3ccc(NC(=O)c4ccsc4)cc3)sc2C(=O)O)=C(C2CCC(C)CC2)C1` (stereo not drawn) [Example 049, 3-[1-Ethyl-5-(4-methyl-cyclohexyl)-1,2,3,6-tetrahydro-pyridin-4-yl]-5-{4-[(thiophene-3-carbonyl)-amino]-phenyl}-thiophene-2-carboxylic acid] showed an IC50 below 3 µM.

Compound `CC1CCC(C2=C(c3cc(C#CC4(Cc5ccccc5)CC4)sc3C(=O)O)CCN(C)C2)CC1` (stereo not drawn) [Example 174, 5-(1-Benzyl-cyclopropylethynyl)-3-[1-methyl-5-(4-methyl-cyclohexyl)-1,2,3,6-tetrahydro-pyridin-4-yl]-thiophene-2-carboxylic acid] showed an IC50 above 10 µM.

The compound `CCN1CCC(c2cc(C#CC(C)(C)C)sc2C(=O)O)=C(C2CCC(C)CC2)C1` (stereo not drawn) [Example 014, 5-(3,3-Dimethyl-but-1-ynyl)-3-[1-ethyl-5-(4-methyl-cyclohexyl)-1,2,3,6-tetrahydro-pyridin-4-yl]-thiophene-2-carboxylic acid] returned an IC50 below 3 µM.

In turn, `CN1CCC(c2cc(-c3ccc(NC(=O)c4cscn4)cc3)sc2C(=O)O)=C([C@H]2CC[C@H](C)CC2)C1` [Example 047, 3-[1-Methyl-5-(4-methyl-cyclohexyl)-1,2,3,6-tetrahydro-pyridin-4-yl]-5-{4-[(thiazole-4-carbonyl)-amino]-phenyl}-thiophene-2-carboxylic acid] gave an IC50 below 3 µM.

`CC1CCC(C2=C(c3cc(-c4ccc(NC(=O)c5cscn5)cc4)sc3C(=O)O)CCN(Cc3ccccn3)C2)CC1` (stereo not drawn) [Example 131, 3-[5-(4-Methyl-cyclohexyl)-1-pyridin-2-ylmethyl-1,2,3,6-tetrahydro-pyridin-4-yl]-5-{4-[(thiazole-4-carbonyl)-amino]-phenyl}-thiophene-2-carboxylic acid] came in with an IC50 below 3 µM.

In turn, `CCN1CCC(c2cc(-c3ccc(NC(=O)c4cn[nH]c4)cc3)sc2C(=O)O)=C(C2CCC(C)CC2)C1` (stereo not drawn) [Example 056, 3-[1-Ethyl-5-(4-methyl-cyclohexyl)-1,2,3,6-tetrahydro-pyridin-4-yl]-5-{4-[(1H-pyrazole-4-carbonyl)-amino]-phenyl}-thiophene-2-carboxylic acid] returned an IC50 of 3 to 10 µM.

For the compound `CC1CCC(C2=C(c3cc(-c4ccccc4)sc3C(=O)O)CCN(CCCCc3ccccc3)C2)CC1` (stereo not drawn) [Example 080, 3-[5-(4-Methyl-cyclohexyl)-1-(4-phenyl-butyl)-1,2,3,6-tetrahydro-pyridin-4-yl]-5-phenyl-thiophene-2-carboxylic acid], the IC50 is above 10 µM.

As to `CC1CCC(C2=C(c3cc(-c4ccccc4)sc3C(=O)O)CCN(Cc3c(Cl)cncc3Cl)C2)CC1` (stereo not drawn) [Example 146, 3-[1-(3,5-Dichloro-pyridin-4-ylmethyl)-5-(4-methyl-cyclohexyl)-1,2,3,6-tetrahydro-pyridin-4-yl]-5-phenyl-thiophene-2-carboxylic acid], the 50% inhibitory concentration (IC50) was above 10 µM.

As to `CC1CCC(C2=C(c3cc(-c4ccc(NC(=O)c5cscn5)cc4)sc3C(=O)OCOC(=O)C(C)(C)C)CCN(C)C2)CC1` (stereo not drawn) [Example 101, 3-[1-Methyl-5-(4-methyl-cyclohexyl)-1,2,3,6-tetrahydro-pyridin-4-yl]-5-{4-[(thiazole-4-carbonyl)-amino]-phenyl}-thiophene-2-carboxylic acid 2,2-dimethyl-propionyloxymethyl ester], the IC50 was above 10 µM.

`CCN1CCC(c2cc(-c3ccc(C(=O)Nc4ccccn4)cc3)sc2C(=O)O)=C(C2CCC(C)CC2)C1` (stereo not drawn) [Example 062, 3-[1-Ethyl-5-(4-methyl-cyclohexyl)-1,2,3,6-tetrahydro-pyridin-4-yl]-5-[4-(pyridin-2-ylcarbamoyl)-phenyl]-thiophene-2-carboxylic acid] registered a half-maximal inhibitory concentration (IC50) below 3 µM.

In turn, `CCN1CCC(c2cc(-c3ccc(NC(=O)c4cc(C)on4)cc3)sc2C(=O)O)=C(C2CCC(C)CC2)C1` (stereo not drawn) [Example 053, 3-[1-Ethyl-5-(4-methyl-cyclohexyl)-1,2,3,6-tetrahydro-pyridin-4-yl]-5-{4-[(5-methyl-isoxazole-3-carbonyl)-amino]-phenyl}-thiophene-2-carboxylic acid] gave an IC50 of 3 to 10 µM.

`CC1CC=C(C2=C(c3cc(C#CC(C)(C)C)sc3C(=O)O)CCN(C)C2)CC1` (stereo not drawn) [Example 068, 5-(3,3-Dimethyl-but-1-ynyl)-3-[1-methyl-5-(4-methyl-cyclohex-1-enyl)-1,2,3,6-tetrahydro-pyridin-4-yl]-thiophene-2-carboxylic acid] had an IC50 below 3 µM.

`CC1CCC(C2=C(c3cc(-c4ccc(NC(=O)c5cscn5)cc4)sc3C(=O)O)CCNC2)CC1` (stereo not drawn) [Example 159, 3-[5-(4-Methyl-cyclohexyl)-1,2,3,6-tetrahydro-pyridin-4-yl]-5-{4-[(thiazole-4-carbonyl)-amino]-phenyl}-thiophene-2-carboxylic acid] showed an IC50 below 3 µM.

With `CCN1CCC(c2cc(C#CCC(C)C)sc2C(=O)O)=C(C2CCC(C)CC2)C1` (stereo not drawn) [Example 029, 3-[1-Ethyl-5-(4-methyl-cyclohexyl)-1,2,3,6-tetrahydro-pyridin-4-yl]-5-(4-methyl-pent-1-ynyl)-thiophene-2-carboxylic acid], the IC50 was below 3 µM.

A word on the IC50: it is the concentration that inhibits the measured activity by half. Higher therefore signals weaker potency.
